# Measurements taken from US9187425B2, “2,5-disubstituted arylsulfonamide CCR3 antagonists” (Axikin Pharmaceuticals, Inc., priority 2009, dated 2015).
# Biological target: T1, CCR3 (UniProt P51677)
# T1 sequence (P51677 1-355): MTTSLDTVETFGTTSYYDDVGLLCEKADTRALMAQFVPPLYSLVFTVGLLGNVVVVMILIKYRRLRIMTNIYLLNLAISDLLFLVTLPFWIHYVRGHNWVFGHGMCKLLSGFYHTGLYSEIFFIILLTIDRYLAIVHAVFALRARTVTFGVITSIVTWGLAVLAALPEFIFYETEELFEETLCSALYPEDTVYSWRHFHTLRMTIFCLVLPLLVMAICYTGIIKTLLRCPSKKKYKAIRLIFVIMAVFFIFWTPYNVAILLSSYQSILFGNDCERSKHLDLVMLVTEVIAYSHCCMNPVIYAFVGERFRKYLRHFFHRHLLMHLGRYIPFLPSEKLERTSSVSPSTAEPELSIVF
# Test: CCR3 Receptor Binding Assay ([125I]-labeled human eotaxin/CCL11 displacement on cells)
# Details: 0.1 nM [125I]-labeled human eotaxin/CCL11, 60 min at room temperature, 2×10^5 cells/well
# Protocol: Cells were washed once with PBS and resuspended in a binding buffer (25 mM HEPES pH 7.6, 5 mM MgCl2, 1 mM CaCl2, 0.5% BSA, 0.1% NaN3). […] of cell suspension (2×10^5 cells/well) and 0.1 nM [^125I]-labeled human eotaxin/CCL11 (2000 Ci/mmol specific activity) were mixed in a 96-well U-bottom polypropylene plate, and incubated for 60 min at room temperature for the binding reaction. The cell suspension was then transferred to a filtration plate (#MAFB, Millipore), and washed 3 times with the binding buffer containing 0.5 M NaCl, scintillant added, and the radioactivity was counted on a TopCount (Packard). For the determination of non-specific binding, the cell suspension and [^125I]-labeled human eotaxin/CCL11 were incubated in the presence of 500 nM of unlabeled human eotaxin/CCL11. See, Iino et al., “Molecular cloning and functional characterization of cynomolgus monkey (Macaca fascicularis) CC chemokine receptor, CCR3,” Cytokine 2002, 19, 276-286.
# Biological results are summarized in Table 1, wherein A represents a value no greater than 50 nM, and B represents a value greater than 50 nM but no greater than 500 nM, C represents a value greater than 500 nM but no greater than 5 μM, and D represents a value greater than 5 μM.
row,Ki [nM],Structure (SMILES)
1,50 to 500,N#Cc1ccc(Sc2cc(Cl)cc(Cl)c2)c(S(=O)(=O)N2CCCCC2)c1 [Compound 1]
2,> 5000,N#Cc1ccc([S+]([O-])c2cc(Cl)cc(Cl)c2)c(S(=O)(=O)N2CCCCC2)c1 (stereo not drawn) [Compound 2]
3,> 5000,N#Cc1ccc(S(=O)(=O)c2cc(Cl)cc(Cl)c2)c(S(=O)(=O)N2CCCCC2)c1 [Compound 3]
4,≤ 50,Cc1cc(C)cc(Sc2ccc(C#N)cc2S(=O)(=O)N2CCCCC2)c1 [Compound 4]
5,> 5000,Cc1cc(C)cc(Sc2ccc(C#N)cc2S(=O)(=O)N2CCC(C)CC2)c1 [Compound 5]
6,> 5000,CC1CCN(S(=O)(=O)c2cc(C#N)ccc2Sc2cc(Cl)cc(Cl)c2)CC1 [Compound 6]
7,≤ 50,N#Cc1ccc(Sc2cc(Cl)cc(Cl)c2)c(S(=O)(=O)N2CCC(F)CC2)c1 [Compound 7]
8,> 5000,CC1CC(C)CN(S(=O)(=O)c2cc(C#N)ccc2Sc2cc(Cl)cc(Cl)c2)C1 (stereo not drawn) [Compound 8]
9,≤ 50,N#Cc1ccc(Sc2cc(Cl)cc(Cl)c2)c(S(=O)(=O)N2CCNC(=O)C2)c1 [Compound 9]
10,≤ 50,Cc1cc(C)cc(Sc2ccc(C#N)cc2S(=O)(=O)N2CCNC(=O)C2)c1 [Compound 10]
11,≤ 50,N#Cc1ccc(Sc2cc(Cl)cc(Cl)c2)c(S(=O)(=O)N2CCNC(=O)C2)c1 [Compound 11]
12,≤ 50,N#Cc1ccc(Sc2cc(Cl)cc(Cl)c2)c(S(=O)(=O)N2CCOCC2)c1 [Compound 12]
13,≤ 50,N#Cc1ccc(Sc2cc(Cl)cc(Cl)c2)c(S(=O)(=O)N2CCSCC2)c1 [Compound 13]
14,≤ 50,N#Cc1ccc(Sc2cc(Cl)cc(Cl)c2)c(S(=O)(=O)N2CCS(=O)(=O)CC2)c1 [Compound 14]
15,> 5000,Cc1cc(C)cc(Sc2ccc(C#N)cc2S(=O)(=O)N2CCSCC2)c1 [Compound 16]
16,≤ 50,Cc1cc(C)cc(Sc2ccc(C#N)cc2S(=O)(=O)N2CCS(=O)(=O)CC2)c1 [Compound 17]
17,500 to 5000,N#Cc1ccc(Sc2cc(C(F)(F)F)cc(C(F)(F)F)c2)c(S(=O)(=O)N2CCOCC2)c1 [Compound 18]
18,> 5000,N#Cc1ccc(Sc2cc(C(F)(F)F)cc(C(F)(F)F)c2)c(S(=O)(=O)N2CCSCC2)c1 [Compound 19]
19,> 5000,N#Cc1ccc(Sc2cc(C(F)(F)F)cc(C(F)(F)F)c2)c(S(=O)(=O)N2CCS(=O)(=O)CC2)c1 [Compound 20]
20,50 to 500,N#Cc1ccc(Sc2cc(Cl)cc(Cl)c2)c(S(=O)(=O)N2CCSCC2)c1 [Compound 21]
21,≤ 50,N#Cc1ccc(Sc2cc(Cl)cc(Cl)c2)c(S(=O)(=O)N2CCS(=O)(=O)CC2)c1 [Compound 23]
22,> 5000,O=[N+]([O-])c1ccc(Sc2cc(Cl)cc(Cl)c2)c(S(=O)(=O)N2CCSCC2)c1 [Compound 24]
23,> 5000,Cc1cc(C)cc(Sc2ccc([N+](=O)[O-])cc2S(=O)(=O)N2CCSCC2)c1 [Compound 25]
24,> 5000,Cc1cc(C)cc(Sc2ccc(C#N)cc2S(=O)(=O)N2CCS(=O)(=O)CC2)c1 [Compound 26]
25,≤ 50,CC1CN(S(=O)(=O)c2cc(C#N)ccc2Sc2cc(Cl)cc(Cl)c2)CCN1 (stereo not drawn) [Compound 27]
26,≤ 50,CC1CN(S(=O)(=O)c2cc(C#N)ccc2Sc2cc(Cl)cc(Cl)c2)CC(C)N1 (stereo not drawn) [Compound 28]
27,≤ 50,CC1CN(S(=O)(=O)c2cc(C#N)ccc2Sc2cc(Cl)cc(Cl)c2)CC(C)N1 (stereo not drawn) [Compound 29]
28,≤ 50,O=[N+]([O-])c1ccc(Sc2cc(Cl)cc(Cl)c2)c(S(=O)(=O)N2CCS(=O)(=O)CC2)c1 [Compound 30]
29,≤ 50,CC(C)N1CCN(S(=O)(=O)c2cc(C#N)ccc2Sc2cc(Cl)cc(Cl)c2)CC1=O [Compound 31]
30,≤ 50,COC(=O)C1CN(S(=O)(=O)c2cc(C#N)ccc2Sc2cc(Cl)cc(Cl)c2)CCN1 (stereo not drawn) [Compound 32]
